# Test results: US12686690B2, “Macrocyclic urea orexin receptor agonists” (Merck Sharp & Dohme LLC, priority 2020, dated 2026)
# Target: T1, hOX2R (Homo sapiens, UniProt O43614)
# T1 construct: expressed in transfected cells; host or cells: CHO cells (G418 selection)
# T1 sequence (O43614 1-444): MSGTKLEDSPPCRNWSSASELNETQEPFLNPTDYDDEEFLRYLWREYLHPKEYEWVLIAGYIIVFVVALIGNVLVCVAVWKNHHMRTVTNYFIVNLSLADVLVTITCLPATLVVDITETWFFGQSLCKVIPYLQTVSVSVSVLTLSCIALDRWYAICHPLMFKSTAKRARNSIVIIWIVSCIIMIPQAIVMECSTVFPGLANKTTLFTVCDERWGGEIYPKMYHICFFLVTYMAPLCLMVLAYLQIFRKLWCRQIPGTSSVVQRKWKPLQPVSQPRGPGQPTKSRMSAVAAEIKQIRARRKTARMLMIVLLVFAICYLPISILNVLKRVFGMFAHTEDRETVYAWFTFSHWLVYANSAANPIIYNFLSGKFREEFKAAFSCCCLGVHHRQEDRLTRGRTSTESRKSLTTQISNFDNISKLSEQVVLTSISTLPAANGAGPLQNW
# Assay: hOX2R IPone assay (orexin receptor agonism)
# Type: cell-based
# Conditions: IPone readout; for hOX2R_Ipone max %act: maximal activation; for EC50: orexin receptor agonist, read-out: hOX2R_IPone EC50
SMILES,hOX2R_Ipone max %act,EC50
"CCN1C(=O)NCCCN2CCCC2COc2nc(cn3ccnc23)-c2cccc(c2)[C@H]1C (mixture of isomers) [Example 4, (12R)-13-ethyl-12-methyl-12,13,15,16,17,18,21,22,22a, 23-decahydro-14H,20H-6,25-(azeno)-11,7-(metheno)imidazo[1,2-s]pyrrolo[2,1-c][1,4,8,10,19]oxatetraaza-cyclohenicosin-14-one]",79.4%,3840 nM
"CCN1C(=O)NC(CC(F)(F)CC)CCOCCOc2cn3ncnc3c(n2)-c2cc(ncc2C)C1C [Example 122, (3R,E)-7-(2,2-difluorobutyl)-4-ethyl-25,3-dimethyl-10,13-dioxa-4,6-diaza-1(6,8)-[1,2,4]triazolo[1,5-a]pyrazina-2(4,2)-pyridinacyclotridecaphan-5-one]",104.4%,36.4 nM
"CCN1C(=O)N[C@@H](CCC(F)(F)F)CCCCCOc2nc(cn3ccnc23)-c2ccnc(c2)[C@@H]1C [Example 30, (12S,16R)-13-ethyl-12-methyl-16-(3,3,3-trifluoropropyl)-12,13,16,17,18, 19,20,21-octa-hydro-6,23-(azeno)-11,7-(metheno)imidazo [2,1-c][1,4,10, 13,15]oxatetra-azacyclohenicosin-14(15H)-one]",98.5%,51.1 nM
"CCN1C(=O)NCCc2nc(no2)COc2nc(cn3ccnc23)-c2cccc(c2)[C@H]1C [Example 24, (R,27E,54Z)-10-ethyl-11-methyl-3-oxa-8,10-diaza-5(3,5)-oxadiazola-2(6,8)-imidazo[1,2-a]pyrazina-1(1,3)-benzenacyclo-undecaphan-9-one]",61.5%,814 nM
"CCN1C(=O)N[C@@H](CCC(F)(F)F)CCCCCOc2nc(cn3ccnc23)-c2nc(co2)C1C (single isomer, unassigned) [Example 105A]",73.0%,1360 nM
"CCN1C(=O)NCc2nc(no2)CCOc2nc(cn3ccnc23)-c2cccc(c2)[C@H]1C [Example 23, (R,27E,64Z)-10-ethyl-11-methyl-3-oxa-8,10-diaza-6(3,5)-oxadiazola-2(6,8)-imidazo[1,2-a]pyrazina-1(1,3)-benzenacyclo-undecaphan-9-one]",64.2%,1010 nM
"CCN1C(=O)N[C@@H](C(F)(F)F)CCCCOc2nc(cn3ncnc23)-c2cc(ncc2OC)C1C(F)(F)F (stereo partly drawn) [Example 37, (16R)-13-ethyl-8-methoxy-12,16-bis(trifluoromethyl)-12,13,15,16,17,18,19,20-octahydro-14H-6,22-(azeno)-11,7-(metheno) [1,2,4]triazolo[5,1-c][1,4,10,13,15]oxatetra-azacycloicosin-14-one]",77.3%,3010 nM
"CCN1Cc2cc(ccn2)-c2cn3ccnc3c(n2)OCCCCC[C@H](CCC(F)(F)F)NC1=O [Example 120, (16R)-13-ethyl-16-(3,3,3-trifluoropropyl)-12,13,16,17,18,19,20,21-octahydro-6,23-(azeno)-11,7-(metheno)imidazo[2,1-c][1,4,10,13,15]oxatetraazacyclohenicosin-14(15H)-one]",98.4%,17.7 nM
"CCN1C(=O)N[C@@H](CCC(F)(F)F)CCCCCOc2cc(cc3ccnn23)-c2nc(cnc2OC)C1C (single isomer, unassigned) [Example 80A]",98.9%,370 nM

# The next compounds have a lower EC50 than those just listed; values first:
hOX2R_Ipone max %act,EC50,SMILES
102.5%,13.8 nM,"CCN1C(=O)N[C@@H](CCC(F)(F)F)CCCCCOc2nc(nn3cc(C)nc23)-c2cc(ncc2OC)[C@H]1C [Example 123, (3R,7R,E)-4-ethyl-25-methoxy-16,3-dimethyl-7-(3,3,3-trifluoropropyl)-13-oxa-4,6-diaza-1(2,4)-imidazo[2,1-f][1,2,4]triazina-2(4,2)-pyridinacyclotridecaphan-5-one]"
102.2%,10 nM,"CCN1C(=O)N[C@@H](CCC(F)(F)F)CCCCCOc2cc(nc3ccnn23)-c2cc(ncc2OC)[C@H]1C [Example 100, (11R,15R)-12-ethyl-7-methoxy-11-methyl-15-(3,3,3-trifluoropropyl)-11,12,15,16,17,18,19, 20-octahydro-5,22: 10,6-di(metheno)pyrazolo [1,5-c][1,3,5,10,13,15] oxapentaazacycloheni-cosin-13(14H)-one]"
96.84%,9.38 nM,"CCN1C(=O)N[C@@H](CF)CCCCCOc2nc(cn3ccnc23)-c2cc(ncc2OC)[C@H]1C [Example 126, (3R,7R,E)-4-ethyl-7-(fluoromethyl)-25-methoxy-3-methyl-13-oxa-4,6-diaza-1(6,8)-imidazo[1,2-a]pyrazina-2(4,2)-pyridinacyclotridecaphan-5-one]"
101.5%,8.9 nM,"CCN1C(=O)N[C@@H](CCC(F)(F)F)CCCCOc2nc(cn3cc(C)nc23)-c2cc(ncc2OC)C1C(F)(F)F (single isomer, unassigned) [Example 36B]"
100.5%,8 nM,"CCN1C(=O)N[C@@H](CCC(F)(F)F)C/C=C\COc2nc(cn3ccnc23)-c2cccc(c2)[C@H]1C [Example 31, (1^7E,3R,7S,9Z)-4-ethyl-3-methyl-7-(3,3,3-trifluoropropyl)-12-oxa-4,6-diaza-1(6,8)-imidazo[1,2-a]pyrazina-2(1,3)-benzenacyclododecaphan-9-en-5-one]"
104.8%,5.9 nM,"CCN1C(=O)N[C@@H](CCC(F)(F)F)CCCCCOc2nc(cc3cccnc23)-c2cc(ncc2OC)[C@H]1C [Example 162, (3R,7R)-4-ethyl-25-methoxy-3-methyl-7-(3,3,3-trifluoropropyl)-13-oxa-4,6-diaza-1(6,8)-naphthyridina-2(4,2)-pyridinacyclotridecaphan-5-one]"
100.1%,5.43 nM,"CCN1C(=O)N[C@@H](CCC(F)F)CCOCCOc2nc(nn3ccnc23)-c2cc(ncc2F)[C@H]1C [Example 127, (3R,7S,E)-7-(3,3-difluoropropyl)-4-ethyl-25-fluoro-3-methyl-10,13-dioxa-4,6-diaza-1(2,4)-imidazo[2,1-f][1,2,4]triazina-2(4,2)-pyridinacyclotridecaphan-5-one]"
100.5%,4.3 nM,"CCN1C(=O)N[C@@H](CCC(F)(F)F)CCCCCOc2nc(nn3ccnc23)-c2cc(cnc2OC)[C@H]1C [Example 47, (3R,7R,E)-4-ethyl-22-methoxy-3-methyl-7-(3,3,3-trifluoropropyl)-13-oxa-4,6-diaza-1(2,4)-imidazo[2,1-f][1,2,4]triazina-2(3,5)-pyridinacyclotridecaphan-5-one]"
101%,2.8 nM,"CCN1C(=O)N[C@@H](CCC(F)(F)F)CCCCOc2nc(cn3ccnc23)-c2cccc(c2)[C@H]1C [Example 32, (3R,7R,E)-4-ethyl-3-methyl-7-(3,3,3-trifluoropropyl)-12-oxa-4,6-diaza-1(6,8)-imidazo[1,2-a]pyrazina-2(1,3)-benzenacyclododecaphan-5-one]"
102.3%,1.73 nM,"CCN1C(=O)NC(C(C)OC)CCCCCOc2nc(cn3ccnc23)-c2cc(ncc2OC)[C@H]1C (stereo partly drawn) [Example 191, (3R,E)-4-ethyl-25-methoxy-7-(1-methoxyethyl)-3-methyl-13-oxa-4,6-diaza-1(6,8)-imidazo[1,2-a]pyrazina-2(4,2)-pyridinacyclotridecaphan-5-one]"
